{"source": "patent US20050118310A1", "about": "“Formulations of compounds derived from natural sources and their use with irradiation for food preservation” (priority 2001, published 2005)", "tested_on": "E. coli", "assay": "Effect of carvacrol concentration on survival of E. coli in ground beef irradiated at 0.25 kGy", "format": "cell-based, Escherichia coli (ATCC 25922)", "details": "for Increase in Sensitivity: vs 0% carvacrol", "description": "The irradiation treatments of ground beef samples for D10 determination was done using UC-15B irradiator (MDS-Nordion International Inc., Kanata, ON, Canada) equipped with a ^60Co source at a dose rate of 14.42 kGy/h). Irradiation doses used for D10 determination were ranged from 0.1 to 0.6 kGy for E. coli and from 0.50 to 2.0 kGy for S. typhi. Under frozen condition, the irradiation doses ranged from 0.1 to 0.7 kGy for E. coli and from 0.5 to 3.0 kGy for S. typhi. For the determination of the effect of various concentrations of carvacrol on the irradiation sensitivity, samples were irradiated at 0.25 kGy for E. coli and at 0.5 kGy for S. typhi. Irradiation doses used for D10 determination in chicken breast ranged from 0.1 to 0.7 kGy for E. coli and from 0.25 to 2.0 kGy for S. typhi. Samples were analysed immediately after irradiation to determine the microbial count.\nSamples were homogenised for 2 min in sterile peptone water (0.1%) using a Lab-blender 400 stomacher (Laboratory Equipment, London, UK). From this mixture, serial dilutions were prepared and appropriate ones were pour-plated in tryptic soy agar (TSA) (Difco, Laboratories, Detroit, Mich., USA) and incubated at 35° C., 24 hours for the numeration of E. coli and S. typhi.\nThe effect of various concentrations of carvacrol in irradiated ground beef was evaluated in order to determine if lower concentrations of carvacrol could also increase the irradiation sensitivity of E. coli and S. typhi in ground beef. For these experiments, sterile ground beef was contaminated with either E. coli or S. typhi to a final concentration of 10^5 CFU/g. Various concentrations of carvacrol ranging from 0 to 2.0% were added to the ground beef samples and transferred in portions of 25 g each to sterile petri plates (60×15 nmu) then stored at 4° C. until irradiation treatment (approximately 15 h).", "note": "Marks after values point to notes of the source that are not given here."}
{"smiles": "Cc1ccc(C(C)C)cc1O", "note": "[Carvacrol, carvacrol]", "values": [{"measurement": "Log CFU/g", "setting": "carvacrol 0.2%", "result": "2.948 ± 0.088^b Log CFU/g"}, {"measurement": "Increase in Sensitivity", "setting": "carvacrol 0.2%", "result": 4.8, "unit": "%"}, {"measurement": "Log CFU/g", "setting": "carvacrol 0.4%", "result": "2.948 ± 0.068^b Log CFU/g"}, {"measurement": "Increase in Sensitivity", "setting": "carvacrol 0.4%", "result": 4.8, "unit": "%"}, {"measurement": "Log CFU/g", "setting": "carvacrol 0.6%", "result": "2.660 ± 0.037^c Log CFU/g"}, {"measurement": "Increase in Sensitivity", "setting": "carvacrol 0.6%", "result": 14.1, "unit": "%"}, {"measurement": "Log CFU/g", "setting": "carvacrol 0.8%", "result": "1.198 ± 0.065^d Log CFU/g"}, {"measurement": "Increase in Sensitivity", "setting": "carvacrol 0.8%", "result": 61.3, "unit": "%"}, {"measurement": "Log CFU/g", "setting": "carvacrol 1.0%", "result": "0.843 ± 0.000^e Log CFU/g"}, {"measurement": "Increase in Sensitivity", "setting": "carvacrol 1.0%", "result": 72.8, "unit": "%"}, {"measurement": "Log CFU/g", "setting": "carvacrol […]", "result": "0.000 ± 0.000^f Log CFU/g"}, {"measurement": "Increase in Sensitivity", "setting": "carvacrol […]", "result": 100, "unit": "%"}]}
